Source: patent US5801178A, “Aniline derivative having polyunsaturated fatty acid residue and use thereof” (Nippon Shoji Kaish Ltd., priority 1995, dated 1998)

Tests used:
[1] = target: T1, ACAT derived from human macrophage (Homo sapiens, UniProt P35610); test: Inhibitory activity against ACAT derived from human macrophage (microsomes of TPA-differentiated U937 cells); format: biochemical; settings: for Selectivity: Table 1, rat liver ACAT IC50 / human macrophage ACAT IC50; for IC50: human macrophage (U937/TPA) microsome, pH 7.4, 37° C., 30 minutes; for selectivity (times greater, human macrophage ACAT vs rat liver ACAT): linoleoylamide derivatives
T1 construct: Using, as an enzyme source, microsomal fractions prepared in the manner described below under Preparation of Microsome from U937 cells; endogenous in cells; host or cells: U937 cells differentiated with TPA, microsomal fraction
T1 sequence (P35610 1-550): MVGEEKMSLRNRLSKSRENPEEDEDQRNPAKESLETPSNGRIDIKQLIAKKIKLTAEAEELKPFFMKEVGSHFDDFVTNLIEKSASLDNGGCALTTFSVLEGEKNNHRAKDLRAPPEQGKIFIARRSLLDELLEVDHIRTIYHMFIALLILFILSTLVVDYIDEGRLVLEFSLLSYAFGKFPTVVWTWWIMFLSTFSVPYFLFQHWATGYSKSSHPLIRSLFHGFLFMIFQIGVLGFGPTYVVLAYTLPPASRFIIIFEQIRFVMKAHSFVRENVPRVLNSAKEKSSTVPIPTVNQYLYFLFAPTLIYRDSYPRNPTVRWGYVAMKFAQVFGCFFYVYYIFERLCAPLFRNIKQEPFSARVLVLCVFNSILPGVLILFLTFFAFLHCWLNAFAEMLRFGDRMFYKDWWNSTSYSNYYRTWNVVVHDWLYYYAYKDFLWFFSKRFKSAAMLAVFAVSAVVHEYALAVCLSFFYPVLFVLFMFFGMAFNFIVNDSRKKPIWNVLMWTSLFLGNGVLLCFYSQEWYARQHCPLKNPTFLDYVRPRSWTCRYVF
Protocol: Inhibitory activity against ACAT derived from human macrophage
(§1) Using, as an enzyme source, microsomal fractions prepared in the manner described below under Preparation of Microsome from U937 cells [human monocyte-derived cells known to differentiate into macrophages by the addition of TPA (12-O-tetradecanoylphorbol 13-acetate)] differentiated with TPA, the inhibitory activity against ACAT in the microsome fractions was determined as in the following. The compound of the present invention was dissolved in dimethyl sulfoxide and used as a sample solution. [1-^14 C] […] Ethanol (1 ml) was added to stop the reaction, and n-hexane (4.5 ml) was added. The reaction mixture was centrifuged at 2,000 rpm for 2 minutes and the upper n-hexane layer was separated and recovered, whereby cholesterol oleate (reaction product) was extracted. n-Hexane was evaporated with a nitrogen gas and the residue was re-dissolved in n-hexane (50 μl), which was used as a sample for thin-layer chromatography. […] After developing, the spot of cholesterol oleate was colored with iodine. The spot was cut out and dissolved in a xylene scintillator (Aquasol-2, Daiichi Pure Chemicals Co., Ltd.). The amount of cholesterol oleate was determined with a liquid scintillation counter.
The cells thus scraped and the culture solution were centrifuged at 3,000 rpm for 5 minutes, and the cell fractions obtained as precipitate were once freezed at -70° C. and preserved. The cells preserved at -70° C. were thawed and homogenized at 4° C. in a Teflon homogenizer. The homogenate was centrifuged at 12,000 g for 15 minutes. The precipitate fractions containing nuclea and mitochondria were removed and the obtained supernatant was further centrifuged at 100,000 g for 60 minutes. The supernatant was discarded, and the obtained precipitate fractions were suspended in 150 mM potassium phosphate buffer (pH 7.4) and used as a microsomal fraction.

[2] = tested on: ACAT derived from rat liver; test: Inhibitory activity against ACAT derived from rat liver microsome; format: biochemical; settings: pH 7.4, 37° C., 30 minutes
Protocol: Inhibitory activity against ACAT derived from rat liver microsome
as §1, with “source, the” for “source,”, “prepared from rat liver” for “prepared”, “of Microsome,” for “of Microsome from U937 cells [human monocyte-derived cells known to differentiate into macrophages by the addition of TPA (12-O-tetradecanoylphorbol 13-acetate)] differentiated with TPA,”, “re-dissolved dissolved” for “re-dissolved”, “determined using” for “determined with”
The liver was removed from a fasted rat and thoroughly perfused with 0.25M sucrose solution. The liver was weighed, minced with scissors or razor and placed in a Teflon homogenizer. The liver was homogenized with 9 volumes [9 ml per g (wet weight) of liver] of 0.25M sucrose solution or 50 mM Tris-HCl buffer (pH 7.5) containing 0.25M sucrose and 5 mM MgCl2. The homogenate was centrifuged at 8,000-10,000 g for 10-15 minutes. The obtained supernatant was centrifuged at 105,000 g for 60-90 minutes. The sediment obtained from this centrifugation was suspended in 150 mM potassium phosphate buffer (pH 7.4) to give a microsomal fraction.

[3] = Reduction of cholesterol in blood of cholesterol-loaded rats; format: in vivo, Male slc:SD (SPF) rats; settings: serum total cholesterol; 90 mg/kg/day orally, five days; average of 8 rats; control taken as 100%
Text: Reduction of cholesterol in blood of rats
Male slc:SD (SPF) rats (4 weeks of age weighing 70-90 g, Japan SLC Inc.) were randomly divided into 8 per group and bred for 3 days on a normal diet (solid diet for test animals, MF, manufactured by Oriental Yeast CO., LTD.). Then, the aforementioned diet supplemented with 5% cholesterol, 10% olive oil and 0.5% cholic acid was freely fed for 10 days. During the last five days, the test compound (Compounds 3-6, 8, 11 and 12) suspended in 0.5% aqueous methylcellulose solution was forcibly administered orally once a day in a dose of 10 ml/kg which contains 90 mg/kg/day of the test compound (total dose of the test compound being 450 mg/kg). The rats were fasted for 16 hours after the final administration and etherized. The blood was taken from the abdominal aorta, and serum was separated by centrifugation to determine the total cholesterol content in the serum. The control group was administered with 0.5% aqueous methylcellulose solution instead of the test compound suspended in 0.5% aqueous methylcellulose solution.
* is an average of 8 rats per group based on the cholesterol content in
blood of control which was taken as 100%.

| SMILES | Selectivity [1] | IC50 [1] | IC50 [2] | Reduction of cholesterol in cholesterol-loaded rats, %* [3] | selectivity (times greater, human macrophage ACAT vs rat liver ACAT) [1] | ACAT inhibitory activity (in words) ([1]; human macrophage ACAT) |
| --- | --- | --- | --- | --- | --- | --- |
| CCC=CCC=CCC=CCC=CCC=CCCCC(=O)Nc1c(OC)cc(OC)cc1OC [Compound 1, N-(2,4,6-trimethoxyphenyl)-5,8,11,14,17-eicosapentaenamide] | 49.6 | 0.27 µM | 13.4 µM | – | – | – |
| CCC=CCC=CCC=CCC=CCC=CCC=CCCC(=O)Nc1c(OC)cc(OC)cc1OC [Compound 2, N-(2,4,6-trimethoxyphenyl)-4,7,10,13,16,19-docosahexaenamide] | 40.6 | 0.5 µM | 20.3 µM | – | – | – |
| CCC=CCC=CCC=CCC=CCC=CCCCC(=O)Nc1c(C)cccc1C [Compound 7, N-(2,6-dimethylphenyl)-5,8,11,14,17-eicosapentaenamide] | 70.8 | 0.06 µM | 4.25 µM | – | – | – |
| CCC=CCC=CCC=CCC=CCC=CCCCC(=O)Nc1c(CC)cccc1CC [Compound 9, N-(2,6-diethylphenyl)-5,8,11,14,17-eicosapentaenamide] | 60 | 0.018 µM | 1.08 µM | – | – | – |
| CCC=CCC=CCC=CCC=CCC=CCC=CCCC(=O)Nc1c(CC)cccc1CC [Compound 10, N-(2,6-diethylphenyl)-4,7,10,13,16,19-docosahexaenamide] | 395 | 0.029 µM | 11.5 µM | – | – | – |
| CCC=CCC=CCC=CCC=CCC=CCC=CCCC(=O)Nc1c(C(C)C)cccc1C(C)C [Compound 12, N-(2,6-diisopropylphenyl)-4,7,10,13,16,19-docosahexaenamide] | – | – | 52.7 µM | 64% | – | – |
| CCC=CCC=CCC=CCC=CCC=CCCCC(=O)NCCNC(=O)Nc1c(C(C)C)cccc1C(C)C [Compound 13, N-(5,8,11,14,17-eicosapentaenoyl)-N'-(2,6-diisopropylanilinocarbonyl)ethylenediamine] | > 746 | 0.67 µM | > 500 µM | – | – | – |
| CCC=CCC=CCC=CCC=CCC=CCC=CCCC(=O)NCCNC(=O)Nc1c(C(C)C)cccc1C(C)C [Compound 14, N-(4,7,10,13,16,19-docosahexaenoyl)-N'-(2,6-diisopropylanilinocarbonyl)ethylenediamine] | > 111 | 4.52 µM | > 500 µM | – | – | – |
| CCC=CCC=CCC=CCC=CCC=CCCCC(=O)N1CCN(C(=O)Nc2c(C(C)C)cccc2C(C)C)CC1 [Compound 15, N-(5,8,11,14,17-eicosapentaenoyl)-N'-(2,6-diisopropylanilinocarbonyl)piperazine] | > 463 | 1.08 µM | > 500 µM | – | – | – |
| CCC=CCC=CCC=CCC=CCC=CCC=CCCC(=O)N1CCN(C(=O)Nc2c(C(C)C)cccc2C(C)C)CC1 [Compound 16, N-(4,7,10,13,16,19-docosahexaenoyl)-N'-(2,6-diisopropylanilinocarbonyl)piperazine] | > 725 | 0.69 µM | > 500 µM | – | – | – |
| CCC=CCC=CCC=CCC=CCC=CCCCC(=O)NC1CCCCC1NC(=O)Nc1c(C(C)C)cccc1C(C)C (centres unmarked) [Compound 17, N-(5,8,11,14,17-eocosapentaenoyl)-N'-(2,6-diisopropylanilinocarbonyl)-1,2-diaminocyclohexane] | > 269 | 1.86 µM | > 500 µM | – | – | – |
| CCC=CCC=CCC=CCC=CCC=CCC=CCCC(=O)NC1CCCCC1NC(=O)Nc1c(C(C)C)cccc1C(C)C (centres unmarked) [Compound 18, N-(4,7,10,13,16,19-docosahexaenoyl)-N'-(2,6-diisopropylanilinocarbonyl)-1,2-diaminocyclohexane] | > 190 | 2.63 µM | > 500 µM | – | – | – |
| CCC=CCC=CCC=CCC=CCC=CCCCC(=O)Nc1ccc(CNC(=O)Nc2c(C(C)C)cccc2C(C)C)cc1 [Compound 19, N-{4-(5,8,11,14,17-eicosapentaenoylamino)phenylmethyl}-N'-(2,6-diisopropylphenyl)urea] | > 3333 | 0.15 µM | > 500 µM | – | – | – |
| CCC=CCC=CCC=CCC=CCC=CCC=CCCC(=O)Nc1ccc(CNC(=O)Nc2c(C(C)C)cccc2C(C)C)cc1 [Compound 20, N-{4-(4,7,10,13,16,19-docosahexaenoylamino)phenylmethyl}-N'-(2,6-diisopropylphenyl)urea] | 18.4 | 1.1 µM | 20.2 µM | – | – | – |
| CCC=CCC=CCC=CCC=CCC=CCCCC(=O)NCc1ccc(NC(=O)Nc2c(C(C)C)cccc2C(C)C)cc1 [Compound 21, N-{4-(5,8,11,14,17-eicosapentaenoylaminomethyl)phenyl}-N'-(2,6-diisopropylphenyl)urea] | >75.3 | 6.64 µM | > 500 µM | – | – | – |
| CCC=CCC=CCC=CCC=CCC=CCC=CCCC(=O)NCc1ccc(NC(=O)Nc2c(C(C)C)cccc2C(C)C)cc1 [Compound 22, N-{4-(4,7,10,13,16,19-docosahexaenoylaminomethyl)phenyl}-N'-(2,6-diisopropylphenyl)urea] | >27.9 | 17.9 µM | > 500 µM | – | – | – |
| CCCCC/C=C\C/C=C\CCCCCCCC(=O)Nc1c(C(C)C)cccc1C(C)C [reference compound] | – | 0.006 µM | 0.09 µM | – | about fifteen times | – |
| CCCCC/C=C\C/C=C\CCCCCCCC(=O)N1CCN(C(=O)Nc2c(C(C)C)cccc2C(C)C)CC1 [reference compound] | – | 4.61 µM | ≥ 500 µM | – | – | low activity |
| CCCCC/C=C\C/C=C\CCCCCCCC(=O)Nc1c(OC)cc(OC)cc1OC [reference compound] | – | 0.67 µM | 0.87 µM | – | scarce selectivity | – |
| CCCCCC=CCC=CCCCCCCCC(=O)Nc1c(C)cccc1C [reference compound] | – | 0.07 µM | 0.14 µM | – | about twice | – |
| CCCCC/C=C\C/C=C\CCCCCCCC(=O)Nc1c(CC)cccc1CC [reference compound] | – | 0.02 µM | 0.1 µM | – | about five times | – |
